Activity calls are given as the source filed them. The rule behind the calls is not given here.

In ChEMBL document CHEMBL3045987, “Antitussive effects of azepino[2,1-b]quinazolones” (Med Chem Res, 2012) one finds inhibition and Activity data, which are given here for 17 molecules.

What all share (type): functional, organism-based
The subject of assay [1] is Cavia porcellus. The assay can be described thus: Antitussive activity against citric acid-induced cough in Cavia porcellus albino (guinea pig) model assessed as decrease in cough frequency per 10 min at 5 to 20 mg/kg, ip administered 30 min before aersol of citric acid for 10 min.
For assay [2], the system named is Cavia porcellus. The assay can be described thus: Antitussive activity against citric acid-induced cough in Cavia porcellus albino (guinea pig) model assessed as increase in cough latency at 5 to 20 mg/kg, ip administered 30 min before aersol of citric acid for 10 min.
The subject of assay [3] is Cavia porcellus. The assay can be described thus: Antitussive activity against citric acid-induced cough in Cavia porcellus albino (guinea pig) model assessed as increase in cough latency at 10 mg/kg, ip administered 30 min before aersol of citric acid for 10 min. Also on record: dose 10 mg/kg.
Assay [4] relates to Cavia porcellus. In words: Antitussive activity against citric acid-induced cough in Cavia porcellus albino (guinea pig) model assessed as decrease in cough frequency per 10 min at 10 mg/kg, ip administered 30 min before aersol of citric acid for 10 min. Set-up: dose 10 mg/kg.

For the molecule `CN1c2ccccc2C(=O)N2CCCCCC21` (centres undefined), in assay [1], the inhibition entry is “Active”. Besides, the result in assay [2] was Active.
`COc1cc(CNc2ccc3nc4n(c(=O)c3c2)CCCCC4)cc(OC)c1OC`: the inhibition entry in assay [1] is “Active”. Also, the outcome in assay [2] was Active.
As for `COc1cc(OC)c2nc3n(c(=O)c2c1)CCCCC3`, the inhibition result in assay [1] was “Active”. The result in assay [2] was Active.
With `Nc1ccc2nc3n(c(=O)c2c1)CCCCC3`, in assay [1], the inhibition result is “Active”. The outcome in assay [2] was Active.
Consider `O=c1c2cc(Br)cc(Br)c2nc2n1CCCCC2`, for which, in assay [1], the inhibition entry is “Active”. The result in assay [2] was Active.
`CCN1c2ccccc2C(=O)N2CCCCCC21` (centres undefined): the inhibition entry in assay [1] was “Active”. In addition, the result in assay [2] was Active.
Consider `O=c1c2cc([N+](=O)[O-])ccc2nc2n1CCCCC2`, for which, in assay [1], the inhibition result was “Active”. Moreover, in assay [2], the result was Active.
For the molecule `O=C1c2ccccc2NC2CCCCCN12` (centres undefined), in assay [1], the inhibition entry was “Active”. In addition, the result in assay [2] was Active.
Turning to `COc1ccc(CNc2ccc3nc4n(c(=O)c3c2)CCCCC4)cc1OC`, the inhibition result in assay [1] is “Active”. In assay [2], the result was Active.
On to `CC(=O)N1c2ccccc2C(=O)N2CCCCCC21` (centres undefined), for which the inhibition result in assay [1] is “Active”. For the same molecule, the result in assay [2] was Active.
For the molecule `O=c1c2cc(O)cc(O)c2nc2n1CCCCC2`, the inhibition entry in assay [1] was “Active”. Further, the outcome in assay [2] was Active.
`COc1ccc2c3c1O[C@H]1[C@@H](O)C=C[C@H]4[C@@H](C2)N(C)CC[C@@]341`: the result in assay [3] was Active. The inhibition result in assay [4] was “Active”.
`O=c1c2ccccc2nc2n1CCCCC2`: in assay [1], the inhibition entry was “Active”. In assay [2], the result was Active.
Consider `O=c1c2cc(NCc3ccc([N+](=O)[O-])cc3)ccc2nc2n1CCCCC2`, for which the inhibition entry in assay [1] is “Active”. Moreover, the result in assay [2] was Active.
For `O=C1c2ccccc2N(Cc2ccccc2)C2CCCCCN12` (centres undefined), the inhibition result in assay [1] is “Active”. In addition, the outcome in assay [2] was Active.
`O=C1c2ccccc2N(C(=O)c2ccccc2)C2CCCCCN12` (centres undefined): in assay [1], the inhibition entry was “Active”. In addition, the result in assay [2] was Active.
With `N#Cc1ccc(CNc2ccc3nc4n(c(=O)c3c2)CCCCC4)cc1`, the inhibition entry in assay [1] was “Active”. Moreover, in assay [2], the result was Active.
